# Reference: patent US10260068B2, “Prophylactic agent and therapeutic agent for fibrodysplasia ossificans progressiva” (Sumitomo Dainippon Pharma Co., Ltd., priority 2014, dated 2019)
# Residue numbers refer to the chain shown, from its start. d = 2'-deoxy (DNA); r = 2'-OH (RNA)
# Tests used:
# BMP responsive sequence = test: Luciferase reporter after siRNA knockdown of ACVR1 or BMPR1A in FOP patient derived cells treated with activin A; assay type: cell-based, human; details: activin A 16 hours
# Protocol: Patient iPS cell line-derived mesenchymal stem cell-like cells were prepared by the same method as Example 1. The cells were transfected with a Firefly luciferase reporter plasmid having the BMP responsive sequence in the promoter region, a plasmid having a nucleic acid sequence coding for Renilla luciferase downstream of the CMV promoter, as an internal standard, and siRNA for ACVR1 or BMPR1A, using a Lipofectamine 2000 (product of Invitrogen Corp.), for knockdown of ACVR1 or BMPR1A expression. BMPR1A is a type I receptor that transmits the BMP signal. The siRNA used for knockdown was siRNA purchased from Applied Biosystems, having two different sequences for each gene (Catalog Nos. ACVR1:S975, S976, BMPR1A:S281, S282). The cells were also cultured for 16 hours with addition of activin A in the same manner as Example 1. The cells were then solubilized and the luciferase activity was measured. In FIG. 5, the bar graph indicates the mean values for each treated group, and the error bars represent S.D. Here, the sequences of the siRNA used for the test were S975: sense strand: 5′-GGAUCAUUCGUGUACAUCAtt-3′ (SEQ ID NO: 37), antisense strand: 5′-UGAUGUACACGAAUGAUCCaa-3′ (SEQ ID NO: 38), S976: sense strand: 5′-GUUGCUCUCCGAAAAUUUAtt-3′ (SEQ ID NO: 39), antisense strand: 5′-UAAAUUUUCGGAGAGCAACtc-3′ (SEQ ID NO: 40), S281: sense strand: 5′-GGCCGAUAUGGAGAAGUAUtt-3′ (SEQ ID NO: 41), antisense strand: 5′-AUACUUCUCCAUAUCGGCCtt-3′ (SEQ ID NO: 42), S282: sense strand: 5′-GAAUCUGGAUAGUAUGCUUtt-3′ (SEQ ID NO: 43), antisense strand: 5′-AAGCAUACUAUCCAGAUUCtg-3′ (SEQ ID NO: 44). The sequence portions printed in lowercase represent the overhang portions, as portions where the ribose backbone has been replaced with a deoxyribose backbone.
# [1] = test system: FOP patient derived cells; test: Evaluation of binding inhibitors: chondrocyte differentiation of FOP patient derived cells in copresence of human activin A; assay type: cell-based; details: copresence of 30 ng/mL human activin A, 6 days; vs activin-treated group
# Protocol: Patient iPS cell line-derived mesenchymal stem cell-like cells were prepared by the same method as Example 1. The mesenchymal stem cell-like cells were cultured for 6 days by the same method as Example 3, for differentiation to chondrocytes. The effect of each factor on differentiation to chondrocytes was examined, with neutralizing antibody for human activin A (product of R&D Systems, Inc., trade name: Human/Mouse/Rat Activin A βA subunit Antibody), follistatin (product of R&D Systems, Inc., trade name: Recombinant Human Follistatin 315 as 30-344), follistatin-like 3 (product of R&D Systems, Inc., trade name: Recombinant Human Follistatin-related Gene Protein/FLRG), ACVR2A-Fc chimeric protein (product of R&D Systems, Inc., trade name: Recombinant Human Activin RIIA Fc Chimera (CHO)), or ACVR2B-Fc chimeric protein (product of R&D Systems, Inc., trade name: Recombinant Human Activin RIIB Fc Chimera), in the copresence of 30 ng/mL of human activin A. The ACVR2A-Fc chimeric protein is a fusion protein in which a polypeptide fragment having the amino acid sequence of positions 20 to 134 of the amino acid sequence listed as SEQ ID NO: 12, and the Fc region of the human-derived antibody, are bonded via a linker sequence (Ile-Glu-Gly-Arg-Met-Asp). The ACVR2B-Fc chimeric protein is a fusion protein in which a polypeptide fragment having the amino acid sequence of positions 19 to 134 of the amino acid sequence listed as SEQ ID NO: 14, and the Fc region of the human-derived antibody, are bonded via a linker sequence (Ile-Glu-Gly-Arg-Met-Asp). The extent of differentiation to chondrocytes was evaluated by Alcian blue staining and sulfated glycosaminoglycan assay, similar to Example 3. In FIG. 6(B), the bar graph indicates the mean values for each treated group, and the error bars represent S.D.
# [2] = biological target: T1, FOP patient-derived ACVR1 (Homo sapiens, UniProt Q04771, R206H); test: Luciferase reporter (BMP responsive sequence) transcription activity via ACVR1 in FOP patient derived cells; assay type: cell-based; details: ligand 1, 10, 100 ng/mL, 16 hours, significant at 10 and 100 ng/mL vs untreated group
# T1 construct: The patient cells were confirmed to be cells having a typical FOP-associated mutation in the ACVR1 gene; endogenous in cells; host or cells: mesenchymal stem cell-like cells differentiated from an FOP patient-derived iPS cell line
# T1 sequence (Q04771 21-509 R206H): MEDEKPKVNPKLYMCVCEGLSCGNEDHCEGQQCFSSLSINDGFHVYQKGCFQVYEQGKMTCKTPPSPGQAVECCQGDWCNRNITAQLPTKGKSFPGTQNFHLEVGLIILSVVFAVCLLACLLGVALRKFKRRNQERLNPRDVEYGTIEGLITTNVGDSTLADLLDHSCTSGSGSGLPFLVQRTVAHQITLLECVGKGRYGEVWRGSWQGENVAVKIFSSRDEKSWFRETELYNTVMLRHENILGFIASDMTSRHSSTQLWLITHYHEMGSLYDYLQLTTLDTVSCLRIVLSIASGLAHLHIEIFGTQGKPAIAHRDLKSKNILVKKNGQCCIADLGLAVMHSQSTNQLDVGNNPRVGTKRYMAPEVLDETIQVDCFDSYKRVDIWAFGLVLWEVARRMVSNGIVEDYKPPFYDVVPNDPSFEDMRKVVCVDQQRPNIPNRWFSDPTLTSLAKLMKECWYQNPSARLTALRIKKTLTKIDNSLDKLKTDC
# Description: (§1) Following the method of Yamanaka et al. (Cell, 2007, 131 (5), […]), FOP patient-derived iPS cells (hereunder also referred to as “patient-derived iPS cell line”) were established. The patient cells were confirmed to be cells having a typical FOP-associated mutation in the ACVR1 gene. The mutation is a substitution of the 206th arginine residue of the amino acid sequence of ACVR1 (the amino acid sequence listed as SEQ ID NO: 10) with a histidine residue. Next, for use as a control, an iPS cell line with the ACVR1 gene mutation repaired to the normal type (wild type) by gene repair by a BAC knockin vector (hereunder also referred to as “gene-corrected iPS cell clone” or “gene-rescued iPS cell clone”) was established.
# (§2) The patient-derived iPS cell line and gene-corrected iPS cell line were cultured on the matrix of a Matrigel coated plate (trade name: Growth Factor Reduced (GFR)BD Matrigel® by Becton & Dickinson), using mTeSR1 (Stem Cell Technologies) for 2 days under feeder-free conditions. Next, using serum-free medium [F12 Nutrient Mixture (product of Gibco)/Iscove's Modified Dulbecco's Medium (IMDM) (product of Sigma-Aldrich Japan, KK.)/0.5% bovine serum albumin (BSA) (product of Sigma-Aldrich Japan, KK.)/1% Chemically Defined Lipid (CD-Lipid) (product of Gibco, trade name: Chemically Defined Lipid Concentrate)/15 μg/mL apotransferrin (product of Sigma-Aldrich Japan, KK., trade name: apo-Transferrin human)/7 μg/mL insulin (product of Wako Pure Chemical Industries, Ltd., trade name: Insulin, Human, recombinant)/0.45 mM 1-Thioglycerol (product of Sigma-Aldrich Japan, KK.)] with addition of 10 μM SB-431542 (product of Selleck Chemicals) and 1 μM CHIR99021 (product of Wako Pure Chemical Industries, Ltd.), the patient-derived iPS cell line and gene-corrected iPS cell line were further cultured for 1 week under feeder-free conditions for differentiation to neural crest cells. […]
# (§3) After mixing Firefly luciferase reporter plasmid having the BMP responsive sequence in the promoter region (J. Biol. Chem., 2002, 277(7), 4883-4891) and a plasmid having a nucleic acid sequence coding for Renilla luciferase downstream from CMV promoter, as an internal standard (product of Promega Corp., trade name: phRL-CMV Vector), FuGene® HD (Promega Corp.) was used for transfection into the mesenchymal stem cell-like cells. […] Next, the luciferase activity was measured according to the protocol provided with a Dual-Glo Luciferase Assay System (product of Promega Corp.). The luminescence was detected using an EnVision Multilabel Counter (product of Perkin-Elmer). […]
# wild type ACVR1 = biological target: T2, wild type ACVR1 (Homo sapiens, UniProt Q04771); test: Luciferase reporter (BMP responsive sequence) transcription activity in gene-corrected clone derived cells; assay type: cell-based; details: ligand 1, 10, 100 ng/mL, 16 hours
# T2 construct: an iPS cell line with the ACVR1 gene mutation repaired to the normal type (wild type) by gene repair by a BAC knockin vector; endogenous in cells; host or cells: mesenchymal stem cell-like cells differentiated from the gene-corrected iPS cell clone
# T2 sequence (Q04771 21-509): T1 sequence (Q04771 21-509 R206H) with H186R
# Description: as §1, §2, §3
substance,measurement,setting,value
"ACVR1-1: siRNA for ACVR1 (Applied Biosystems S975), SEQ ID NO: 37/38 (chain 1 GGAUCAUUCGUGUACAUCATT; chain 2 UGAUGUACACGAAUGAUCCAA; sugars from the 5' end r19 d2, backbone not given here)",transcription activation of the BMP responsive sequence by human activin A after siRNA knockdown,BMP responsive sequence,disappeared
"ACVR1-2: siRNA for ACVR1 (Applied Biosystems S976), SEQ ID NO: 39/40 (chain 1 GUUGCUCUCCGAAAAUUUATT; chain 2 UAAAUUUUCGGAGAGCAACTC; sugars from the 5' end r19 d2, backbone not given here)",transcription activation of the BMP responsive sequence by human activin A after siRNA knockdown,BMP responsive sequence,disappeared
ACVR2A-Fc chimeric protein: Fusion of positions 20 to 134 of SEQ ID NO: 12 with human antibody Fc region via linker Ile-Glu-Gly-Arg-Met-Asp,"differentiation of FOP patient derived cells to chondrocytes (Alcian blue staining, sulfated glycosaminoglycan assay)",[1],inhibited
"BMPR1A-1: siRNA for BMPR1A (Applied Biosystems S281), SEQ ID NO: 41/42 (chain 1 GGCCGAUAUGGAGAAGUAUTT; chain 2 AUACUUCUCCAUAUCGGCCTT; sugars from the 5' end r19 d2, backbone not given here)",transcription activation of the BMP responsive sequence by human activin A after siRNA knockdown,BMP responsive sequence,not affected
"BMPR1A-2: siRNA for BMPR1A (Applied Biosystems S282), SEQ ID NO: 43/44 (chain 1 GAAUCUGGAUAGUAUGCUUTT; chain 2 AAGCAUACUAUCCAGAUUCTG; sugars from the 5' end r19 d2, backbone not given here)",transcription activation of the BMP responsive sequence by human activin A after siRNA knockdown,BMP responsive sequence,not affected
human activin AB: Recombinant Human Activin AB (R&D Systems); heterodimer of βA chain and βB chain,"transcription activity via ACVR1 (firefly/Renilla luciferase activity, BMP responsive sequence)",[2],significantly increased
same,"transcription activity via ACVR1 (firefly/Renilla luciferase activity, BMP responsive sequence)",wild type ACVR1,not seen
human activin B: Recombinant Human Activin B (R&D Systems); homodimer of βB chains,"transcription activity via ACVR1 (firefly/Renilla luciferase activity, BMP responsive sequence)",[2],significantly increased
same,"transcription activity via ACVR1 (firefly/Renilla luciferase activity, BMP responsive sequence)",wild type ACVR1,not seen
